Source: patent US20250134907A1, “FUSED DIAZEPINES AS AGONISTS OF THE INSULIN-LIKE 3 (INSL3) PEPTIDE RECEPTOR RXFP2 AND METHODS OF USE THEREOF” (The United States of America,as represented by the …, priority 2022, published 2025)

How the values were obtained:
RXFP2 = target: T1, RXFP2 (Homo sapiens, UniProt Q8WXD0); assay: HTRF cAMP assay in HEK-RXFP2 cells with INSL3 B dimer antagonist co-treatment; assay type: cell-based; conditions: antagonist 10 μM-[…], IBMX 200 μM
T1 construct: expressed in transfected cells
Description: Previous publications have characterized the INSL3/RXFP2 binding model, showing that the B-chain of INSL3 binds with high affinity to the extracellular leucine-rich repeat (LRR) domain of RXFP2. To determine if the RXFP2 agonists interact with the receptor in a similar manner, an INSL3 antagonist (INSL3 B dimer) was used to co-treat HEK-RXFP2 cells with RXFP2 agonists or INSL3 and measure induction of cAMP using the HTRF assay. […] The HTRF cAMP assay was carried out in the presence of 200 μM IBMX to amplify the cAMP signal. For this assay, cells were seeded in 96-well flat-bottom opaque plates at 7,500 cells/well in 60 μL/well of serum-free DMEM medium and allowed to attach overnight at 37° C. and 5% CO2. The next morning, cells were treated with 2 μL of INSL3 B dimer antagonist (10 μM-0.21 nM) and 2 μL of 30 nM INSL3 or 4 μL of vehicle (serum-free DMEM+IBMX). Cells were also treated with 1 μL/well of 0.28 μM compound, 2 μM forskolin, or DMSO vehicle. Cells were incubated for 1 hour at 37° C., 5% CO2, after which kit cAMP-d2 and anti-cAMP antibody were added as previously described. Plates were incubated for 1 hour at room temperature, and then the signal was read on a CLARIOstar plate reader (BMG Labtech, Germany).

[1] = tested on: trabecular bone of L3 vertebrae; assay: Bone anabolic study, microCT of L3 vertebrae; assay type: in vivo, C57BL/6J female mice; conditions: 10 mg/kg oral gavage every other day, 8 weeks, vs vehicle

T1 sequence (Q8WXD0 whole entry): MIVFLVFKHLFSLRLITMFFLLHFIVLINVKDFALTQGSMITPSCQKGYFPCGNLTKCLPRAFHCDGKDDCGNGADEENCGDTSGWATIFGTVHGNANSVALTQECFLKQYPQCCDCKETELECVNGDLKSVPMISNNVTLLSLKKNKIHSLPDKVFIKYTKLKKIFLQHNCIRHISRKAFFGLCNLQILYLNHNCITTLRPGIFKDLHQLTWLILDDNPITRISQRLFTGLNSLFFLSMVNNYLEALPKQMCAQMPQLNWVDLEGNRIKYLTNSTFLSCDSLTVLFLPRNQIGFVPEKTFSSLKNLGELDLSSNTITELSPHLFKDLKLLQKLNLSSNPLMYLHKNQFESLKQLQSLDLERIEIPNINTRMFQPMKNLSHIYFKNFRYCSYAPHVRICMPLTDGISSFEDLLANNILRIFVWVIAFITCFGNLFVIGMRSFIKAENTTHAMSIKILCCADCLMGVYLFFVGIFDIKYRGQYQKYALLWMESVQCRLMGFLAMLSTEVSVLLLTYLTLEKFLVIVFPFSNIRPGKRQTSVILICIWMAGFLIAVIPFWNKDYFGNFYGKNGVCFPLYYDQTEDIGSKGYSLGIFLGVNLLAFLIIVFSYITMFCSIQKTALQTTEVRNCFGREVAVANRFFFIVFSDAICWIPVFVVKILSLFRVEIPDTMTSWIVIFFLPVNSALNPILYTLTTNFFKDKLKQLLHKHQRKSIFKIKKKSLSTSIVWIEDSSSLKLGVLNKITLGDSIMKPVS

For `O=C1Nc2ccc(-c3cc(C(F)(F)F)cc(C(F)(F)F)c3)cc2C(=O)N2CCN(C(=O)COc3ccc(OC(F)(F)F)cc3I)C[C@@H]12` [Example 187, (S)-8-(3,5-bis(trifluoromethyl)phenyl)-2-(2-(2-iodo-4-(trifluoromethoxy)phenoxy)acetyl)-1,3,4,12a-tetrahydrobenzo[e]pyrazino[1,2-a][1,4]diazepine-6,12 (2H, 11H)-dione], the “effect of INSL3 B dimer antagonist on cAMP response induced by the compound” value (RXFP2) was “no effect”, the “bone volume per tissue volume (BV/TV)” value [1] was “small non-significant improvement” and the “trabecular number (Tb.N)” value [1] was “significant increase”. For the same molecule, the “trabecular separation (Tb.Sp)” value [1] was “small non-significant improvement” and the “trabecular thickness (Tb.Th)” value [1] was “significant increase”.
